Assay results reported in patent US20260284208A1, “SYSTEM” (Oxford University Innovation Limited, priority 2023, published 2026).

Test system: library of 8,380 IKZF3 degrons (ZF-eGFP/mCherry reporter) in Jurkat cells
Assay: Pooled library screen (FACS, NGS, limma voom LogFC of positive vs negative read counts)
Format: cell-based, human
Outline: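 Cells were lentivirally transduced at MOI <0.3, and mCherry+ cells were sorted 6 days later. Eight days after sorting, cells were treated with DMSO or thalidomide analog for 18 h at 37 °C. mCherry+GFPlow (DMSO-set gate, DAPI-excluded) and remaining cells were sorted, and degrons were PCR-amplified from gDNA and sequenced (>600× coverage, 3 biological replicates).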

In the case of `CN1CCN(c2ccc3c(c2)C(=O)N(C2CCC(=O)NC2=O)C3=O)CC1` (stereo not drawn) [B08, 2-(2,6-dioxopiperidin-3-yl)-5-(4-methylpiperazin-1-yl)isoindoline-1,3-dione], the B08_logFC (Degron-ID 115, SEQ ID NO 2354, 46F_47A_49E_50V_52G_53A_54S_55F_67L) is reported as 2.665, the B08_logFC (Degron-ID 312, SEQ ID NO 2356, 46F_47C_49E_50I_52G_53A_54P_55F_67L) is reported as 2.662 and the B08_logFC (Degron-ID 313, SEQ ID NO 2359, 46F_47C_49E_50I_52G_53A_54Q_55F_67L) is reported as 2.659. The B08_logFC (Degron-ID 316, SEQ ID NO 2364, 46F_47C_49E_50I_52G_53A_54T_55F_67L) was 2.641, the B08_logFC (Degron-ID 355, SEQ ID NO 2334, 46F_47C_49E_50V_52G_53A_54S_55F_67L) was 2.718 and the B08_logFC (Degron-ID 432, SEQ ID NO 2346, 46F_47C_49P_50I_52G_53A_54P_55F_67L) was 2.683. For the same compound, the B08_logFC (Degron-ID 480, SEQ ID NO 2273, 46F_47D_49D_50I_52G_53A_54A_55F_67L) was 2.887, the B08_logFC (Degron-ID 495, SEQ ID NO 2327, 46F_47D_49D_50I_52G_53A_54S_55F_67L) was 2.748 and the B08_logFC (Degron-ID 556, SEQ ID NO 2290, 46F_47D_49E_50I_52G_53A_54T_55F_67L) was 2.821. It also gave a B08_logFC (Degron-ID 557, SEQ ID NO 2336, 46F_47D_49E_50I_52G_53A_54V_55F_67L) of 2.714, a B08_logFC (Degron-ID 591, SEQ ID NO 2348, 46F_47D_49E_50V_52G_53A_54N_55F_67L) of 2.678 and a B08_logFC (Degron-ID 593, SEQ ID NO 2355, 46F_47D_49E_50V_52G_53A_54Q_55F_67L) of 2.664. For the same compound, the B08_logFC (Degron-ID 600, SEQ ID NO 2284, 46F_47D_49N_50I_52G_53A_54A_55F_67L) was 2.845, the B08_logFC (Degron-ID 825, SEQ ID NO 2282, 46F_47E_49E_50V_52G_53A_54G_55F_67L) was 2.853 and the B08_logFC (Degron-ID 852, SEQ ID NO 2326, 46F_47E_49N_50I_52G_53A_54P_55F_67L) was 2.749. The B08_logFC (Degron-ID 966, SEQ ID NO 2283, 46F_47F_49D_50I_52G_53A_54H_55F_67L) was 2.85, the B08_logFC (Degron-ID 1014, SEQ ID NO 2319, 46F_47F_49D_50V_52G_53A_54R_55F_67L) was 2.759 and the B08_logFC (Degron-ID 1079, SEQ ID NO 2329, 46F_47F_49E_50V_52G_53A_54Y_55F_67L) was 2.743. For the same compound, the B08_logFC (Degron-ID 1091, SEQ ID NO 2265, 46F_47F_49N_50I_52G_53A_54N_55F_67L) was 2.903, the B08_logFC (Degron-ID 1095, SEQ ID NO 2275, 46F_47F_49N_50I_52G_53A_54S_55F_67L) was 2.882 and the B08_logFC (Degron-ID 1096, SEQ ID NO 2340, 46F_47F_49N_50I_52G_53A_54T_55F_67L) was 2.704. For the same compound, the B08_logFC (Degron-ID 1146, SEQ ID NO 2305, 46F_47F_49P_50I_52G_53A_54H_55F_67L) was 2.792, the B08_logFC (Degron-ID 1147, SEQ ID NO 2343, 46F_47F_49P_50I_52G_53A_54I_55F_67L) was 2.701 and the B08_logFC (Degron-ID 1149, SEQ ID NO 2361, 46F_47F_49P_50I_52G_53A_54L_55F_67L) was 2.65. The B08_logFC (Degron-ID 1154, SEQ ID NO 2333, 46F_47F_49P_50I_52G_53A_54R_55F_67L) was 2.724, the B08_logFC (Degron-ID 1159, SEQ ID NO 2293, 46F_47F_49P_50I_52G_53A_54Y_55F_67L) was 2.817 and the B08_logFC (Degron-ID 1186, SEQ ID NO 2321, 46F_47F_49P_50V_52G_53A_54H_55F_67L) was 2.754. The B08_logFC (Degron-ID 1192, SEQ ID NO 2303, 46F_47F_49P_50V_52G_53A_54P_55F_67L) was 2.797, the B08_logFC (Degron-ID 1440, SEQ ID NO 2337, 46F_47H_49D_50I_52G_53A_54A_55F_67L) was 2.712 and the B08_logFC (Degron-ID 1541, SEQ ID NO 2267, 46F_47H_49E_50V_52G_53A_54C_55F_67L) was 2.901. It also gave a B08_logFC (Degron-ID 1552, SEQ ID NO 2268, 46F_47H_49E_50V_52G_53A_54P_55F_67L) of 2.901, a B08_logFC (Degron-ID 1572, SEQ ID NO 2307, 46F_47H_49N_50I_52G_53A_54P_55F_67L) of 2.781 and a B08_logFC (Degron-ID 1575, SEQ ID NO 2324, 46F_47H_49N_50I_52G_53A_54S_55F_67L) of 2.75. It also gave a B08_logFC (Degron-ID 1635, SEQ ID NO 2315, 46F_47H_49P_50I_52G_53A_54S_55F_67L) of 2.766, a B08_logFC (Degron-ID 1660, SEQ ID NO 2328, 46F_47H_49P_50V_52G_53A_54A_55F_67L) of 2.746 and a B08_logFC (Degron-ID 1673, SEQ ID NO 2281, 46F_47H_49P_50V_52G_53A_54Q_55F_67L) of 2.855. It also gave a B08_logFC (Degron-ID 1812, SEQ ID NO 2277, 46F_47I_49N_50I_52G_53A_54P_55F_67L) of 2.872, a B08_logFC (Degron-ID 2412, SEQ ID NO 2342, 46F_47M_49D_50I_52G_53A_54P_55F_67L) of 2.702 and a B08_logFC (Degron-ID 2832, SEQ ID NO 2294, 46F_47N_49P_50I_52G_53A_54P_55F_67L) of 2.815. For the same compound, the B08_logFC (Degron-ID 2940, SEQ ID NO 2314, 46F_47Q_49E_50I_52G_53A_54A_55F_67L) was 2.768, the B08_logFC (Degron-ID 2955, SEQ ID NO 2358, 46F_47Q_49E_50I_52G_53A_54S_55F_67L) was 2.66 and the B08_logFC (Degron-ID 2957, SEQ ID NO 2350, 46F_47Q_49E_50I_52G_53A_54V_55F_67L) was 2.675. It also gave a B08_logFC (Degron-ID 2987, SEQ ID NO 2341, 46F_47Q_49E_50V_52G_53A_54I_55F_67L) of 2.703, a B08_logFC (Degron-ID 3012, SEQ ID NO 2271, 46F_47Q_49N_50I_52G_53A_54P_55F_67L) of 2.893 and a B08_logFC (Degron-ID 3100, SEQ ID NO 2338, 46F_47Q_49P_50V_52G_53A_54A_55F_67L) of 2.707. The B08_logFC (Degron-ID 3172, SEQ ID NO 2291, 46F_47R_49D_50V_52G_53A_54P_55F_67L) was 2.82, the B08_logFC (Degron-ID 3252, SEQ ID NO 2349, 46F_47R_49N_50I_52G_53A_54P_55F_67L) was 2.676 and the B08_logFC (Degron-ID 3360, SEQ ID NO 2289, 46F_47S_49D_50I_52G_53A_54A_55F_67L) was 2.823. The B08_logFC (Degron-ID 3421, SEQ ID NO 2287, 46F_47S_49E_50I_52G_53A_54C_55F_67L) was 2.828, the B08_logFC (Degron-ID 3433, SEQ ID NO 2323, 46F_47S_49E_50I_52G_53A_54Q_55F_67L) was 2.75 and the B08_logFC (Degron-ID 3435, SEQ ID NO 2286, 46F_47S_49E_50I_52G_53A_54S_55F_67L) was 2.841.
